Test results as given in patent US20260083751A1, “ALLOSTERIC MODULATORS OF ANDROGEN RECEPTOR COACTIVATOR RECRUITMENT FOR CRPC THERAPY” (University of Pittsburgh – Of the Commonwealth System of …, priority 2022, published 2026).

Target: T1, AR-TIF2 PPI (Homo sapiens, UniProt P10275)
T1 construct: AR-LBD residues (662-919) were incorporated into one biosensor; expressed in transfected cells; host or cells: U-2 OS osteosarcoma cells, coinfected with recombinant adenoviruses
T1 sequence (P10275 662-919): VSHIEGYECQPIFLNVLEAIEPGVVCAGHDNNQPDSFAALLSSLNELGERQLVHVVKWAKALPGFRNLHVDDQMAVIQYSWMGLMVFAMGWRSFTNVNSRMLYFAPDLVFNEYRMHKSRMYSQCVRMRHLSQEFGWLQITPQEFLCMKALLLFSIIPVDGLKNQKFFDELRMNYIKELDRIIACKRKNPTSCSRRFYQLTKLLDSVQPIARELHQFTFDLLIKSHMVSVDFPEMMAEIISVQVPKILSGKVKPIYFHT
Test: AR-TIF2 PPIB assay, both formats stated jointly
Type: cell-based
Details: for IC50: both assay formats, read-out: AR-TIF2 PPI inhibitor/disruptor IC50s; for Fold reduction in relative potency in both AR-TIF2 PPIB assay formats: analog versus its parent hit
Procedure: AR-TIF2 Protein-Protein Interaction Biosensor Assay: The AR-TIF2 PPIB HCS assay was performed in U-2 OS osteosarcoma cells as described previously (Fancher et al., Assay Drug Dev Technol. 2016, 14:453-477; Fancher et al., Assay Drug Dev Technol. 2018, 16:297-319; Hua et al., Assay Drug Dev Technol. 2014, 12:395-418; Hua et al., Methods Mol Biol. 2018, 1683:211-227). Briefly, U-2 OS cells were coinfected with recombinant adenovirus biosensor expression constructs and seeded at 2,500 cells per well in 384-well collagen-coated microplates (Greiner Bio-One #781956) and plates were incubated overnight at 37° C. in 5% CO2 and 95% humidity. […] After the appropriate time, assay plates were fixed by transfer of 50 μL of pre-warmed (37° C.) 7.4% formaldehyde and 2 μg/mL Hoechst 33342 in PBS and incubation at room temperature for 30 minutes. Liquid was aspirated, plates were washed twice with 85 μL PBS, leaving the final wash in the plate. Plates were sealed with adhesive aluminum plate seals, and fluorescent images of three fields of view were acquired in the DAPI (Hoechst stained nuclei), FITC (TIF2-GFP) and Texas Red (AR-RFP) channels on an ImageXpress® Micro (IXM) automated HCS platform (Molecular Devices LLC, Sunnyvale, CA) using a 10× Plan Fluor 0.3 NA objective. Images were analyzed using the Translocation Enhanced (TE) image analysis module of the MetaXpress® software (Molecular Devices, LLC, San Jose, CA) as described previously (Fancher et al., Assay Drug Dev Technol. 2016, 14:453-477; Fancher et al., Assay Drug Dev Technol. 2018, 16:297-319; Hua et al., Assay Drug Dev Technol. 2014, 12:395-418; Hua et al., Methods Mol Biol. 2018, 1683:211-227).
A positional AR-TFI2 protein-protein interaction biosensor (PPIB) assay was used to identify small molecules that inhibited DHT-induced formation of AR-TIF2 PPIs and/or disrupted pre-existing AR-TIF2 PPIs (Fancher et al., Assay Drug Dev Technol 2016, 14(8):453-477; Fancher et al., Assay Drug Dev Technol 2018, 16(6):297-319; Hua et al., Assay Drug Dev Technol 2014, 12:395-418; Hua et al., Methods Mol biol 2018, 1683:211-227). AR-LBD residues (662-919) were incorporated into one biosensor and TIF2 residues (725-840) containing the 3rd NR box LXXLL motif into the second interacting biosensor partner (Id.) The AR-TIF2 PPIB recapitulates the orthosteric ligand (OSL)-induced translocation of AR from the cytoplasm into the nucleus where PPIs with TIF2 result in colocalization of both biosensors in the nucleolus. Using three libraries, a total of 143,535 compounds were screened—a 10,000-compound ChemDiv PPI focused diversity library, a 50,000-compound ChemBridge diversity library, and a 83,535-compound library provided by the NCI's Chemical Biology Consortium. The 10K and 50K diversity libraries were subsets of 142K and 810K parent libraries, enabling screening of a representative subset of >1×10^6 compounds. AR-TIF2 PPI inhibitor and disruptor actives were confirmed in the HCS assay and counter screens designed to identify and exclude nuisance/interference or non-selective compounds (Fancher et al., Assay Drug Dev Technol 2018, 16(6):297-319). […] An AR-GFP subcellular localization assay was used to exclude compounds that reduced AR expression and/or restricted its localization to the cytoplasm (Fancher et al., Assay Drug Dev Technol 2018, 16(6):297-319; Johnston et al., Assay Drug Dev Technol 2016, 14:226-239; Masodi et al., Mol Cancer Ther 2017, 16(10):2120-2129). Hits were structurally classified, clustered, and medicinal chemistry computational filters (PAINS/REOS) were used to exclude nuisance compounds and evaluate drug-like properties (Baell, J Med Chem 2010, 53(7):2719-2740; Baell, ACS Chem. Biol. 2018, 13:36-44; Johnston, Curr Opin Chem Biol 2011, 15:174-182; Walters, Adv Drug Deliv Rev 2002, 54:255-271). […]

| Structure (SMILES) | IC50 [µM] | Fold reduction in relative potency in both AR-TIF2 PPIB assay formats [fold] |
| --- | --- | --- |
| Cc1ccccc1-c1cc(O)c2c(c1)CN(c1cc(N)ncn1)CCO2 [Compound S1-4] | > 100 |  |
| Cc1nc(N)cc(N2CCOc3c(O)cc(-c4ccccc4C)cc3C2)n1 [Compound S1-2] |  | ~2 |
| Cc1c(-c2ccc(F)cc2)[nH]c2ccc(CNC(=O)c3ccc(CO)o3)cc12 [Compound S3-15] |  | ~2 |
| COc1cc(-c2ccc(C)s2)cc2c1OCCN(c1nc(C(N)=O)cs1)C2 [Compound S1-5] |  | 4 |
| Cc1nsc(NC(=O)N2CCC(Cn3ccnc3)CC2)n1 [Compound S2-7] | > 100 |  |
